Test systems include NCI-H226 lung; EKVX NSCLC; OVCAR-3 ovarian; UACC-257 melanoma; HT29 colon; RPMI-8226 leukemia; SN12C renal; MOLT-4 leukemia; UACC-62 melanoma; NCI-H23 lung; SF-539 CNS; DMS 114 small cell lung; MALME-3M melanoma; SK-MEL-2 melanoma; RXF 393 renal; SK-OV-3 ovarian; HCT-15 colon; HOP-62 NSCLC; SF-268 CNS; HCT-116 colon.
Common to all, as to test: growth of human tumour cells (NCI), 48 h

The values below come from PubChem BioAssay (NCI).

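Compound exposure: 48 hours, 5 concentrations, 96-well plates. Definition used: TGI = concentration required for complete inhibition of growth.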

For the molecule `C[C@H](N)C(=O)N[C@@H]1[C@H]2C(=C(O)C[C@@H](O)[C@@H]2O)C(=O)O[C@@H]1C`, the TGI with NCI-H226 lung, in the experiment with EKVX NSCLC, in the experiment with OVCAR-3 ovarian, in the experiment on UACC-257 melanoma, in the experiment with HT29 colon and with RPMI-8226 leukemia was above 100 µM throughout. Besides, the TGI in the experiment on SN12C renal, in the experiment with MOLT-4 leukemia, with UACC-62 melanoma, with NCI-H23 lung, with SF-539 CNS and with DMS 114 small cell lung was above 100 µM each time. Further, the TGI in the experiment on MALME-3M melanoma, in the experiment with SK-MEL-2 melanoma, in the experiment on RXF 393 renal, in the experiment on SK-OV-3 ovarian, in the experiment on HCT-15 colon and in the experiment on HOP-62 NSCLC was above 100 µM each time. The TGI with SF-268 CNS and in the experiment with HCT-116 colon was above 100 µM throughout.

Take `CCOC(=O)C1=NN(c2ccc(Cl)cc2)C2=CC(C)=NN(C)C(=S)N21`: the TGI in the experiment on EKVX NSCLC was 81.9 µM; with OVCAR-3 ovarian it was above 100 µM; in the experiment with UACC-257 melanoma, above 100 µM; with HT29 colon, above 100 µM; in the experiment on RPMI-8226 leukemia, above 100 µM; in the experiment on SN12C renal, above 100 µM. In addition, the TGI is above 100 µM in the experiment on MOLT-4 leukemia; above 100 µM in the experiment with UACC-62 melanoma; above 100 µM in the experiment on NCI-H23 lung; 56.5 µM in the experiment with SF-539 CNS; 47.3 µM in the experiment with RXF 393 renal; 94.4 µM in the experiment with SK-OV-3 ovarian. The TGI with HCT-15 colon, in the experiment on SF-268 CNS and with HCT-116 colon was above 100 µM each time.

For the molecule `COc1ccc(/C=N/n2cnc3c(c2=O)S/C(=C2/SC(=S)N(c4ccc(C)cc4)C2=O)N3c2ccccc2)cc1`, the TGI with NCI-H226 lung is above 100 µM; in the experiment with EKVX NSCLC, above 100 µM; with OVCAR-3 ovarian, 74.2 µM; in the experiment on HT29 colon, above 100 µM; with RPMI-8226 leukemia, above 100 µM; with SN12C renal it was above 100 µM. The TGI was above 10 µM in the experiment with MOLT-4 leukemia; 51.9 µM with UACC-62 melanoma; above 100 µM in the experiment on SF-539 CNS; above 100 µM in the experiment on DMS 114 small cell lung; 60.3 µM with MALME-3M melanoma; above 100 µM with SK-MEL-2 melanoma. Further, the TGI in the experiment with RXF 393 renal was 35.8 µM; with SK-OV-3 ovarian, above 100 µM; with HCT-15 colon it was above 100 µM; in the experiment on HOP-62 NSCLC it was 70.9 µM; with SF-268 CNS it was 99.5 µM; with HCT-116 colon, above 100 µM.

With `COc1ccc(/C(Cl)=C(\C=O)c2ccccc2)cc1OC`, the TGI in the experiment on NCI-H226 lung is 82.2 µM; with EKVX NSCLC, above 100 µM; with OVCAR-3 ovarian, above 100 µM; with UACC-257 melanoma, above 100 µM; with HT29 colon, above 100 µM; in the experiment on SN12C renal it was above 100 µM. The TGI with MOLT-4 leukemia, in the experiment with UACC-62 melanoma, in the experiment on NCI-H23 lung, in the experiment on SF-539 CNS, with DMS 114 small cell lung and with MALME-3M melanoma was above 100 µM throughout. Also, the TGI in the experiment on SK-MEL-2 melanoma was above 100 µM; in the experiment with RXF 393 renal, 69 µM; in the experiment on SK-OV-3 ovarian, above 100 µM; with HCT-15 colon, above 100 µM; in the experiment on HOP-62 NSCLC, 81.8 µM; with SF-268 CNS, above 100 µM. The TGI in the experiment on HCT-116 colon was above 100 µM.
